Results: US20160202206A1, “Matrix-Enhanced Electrochemical Detector for Pathogenic Bacteria” (NORTHEASTERN UNIVERSITY, priority 2013, published 2016)
Like-named read-outs stand apart in the source and are kept apart here.

Columns and labels:
[1] = tested on: P. aeruginosa strain PA14; assay type: cell-based, Pseudomonas aeruginosa; settings: for time to appearance of a pyocyanin signal: M63 minimal media, versus no added amino acid (nearly 24 hours); for effect on pyocyanin production: M63 minimal media or TSB, single amino acid added (tyrosine 3.2 mM, valine 17.6 mM); for up-regulatory effect on pyocyanin production compared with the other amino acids tested: six amino acids tested, M63 minimal media and TSB, scans over 24 hours
Procedure: All bacterial tests were completed using wild-type P. aeruginosa strain PA14. Cell cultures were routinely grown in trypticase soy broth (TSB) (BD Biosciences 211768) at 37° C. and later stored on TSB agar plates at 4° C. when not in use. All amino acids were purchased from Sigma-Aldrich (St. Louis, Mo.) and dissolved in solution using either TSB or M63 minimal salts medium (Fisher Cat. 50-751-6740) [(NH4)2SO4 (15 mM), KH2PO4 (100 mM)] supplemented with MgSO4 (1 mM) and glycerol (0.027 mM). Electrochemical measurements were performed using commercially available Zensor TE100 (EDAQ ET077) screenprinted electrodes featuring carbon working and counter electrodes. Although the Zensor TE100 electrodes include a silver paste reference, a separate 1 M KCl Ag/AgCl reference electrode (CHI111) was employed to minimize the chances of drift in reference potential during measurements lasting several hours, which can occur when the reference electrode is in direct contact with the sample solution. All electrochemical measurements were recorded using a potentiostat (CHI842C, CH Instruments).
Individual amino acids were dissolved at specific concentrations in either 10 mL of TSB or M63 media. Each solution was inoculated with a specific concentration of P. aeruginosa and incubated at 37 C. […] of each solution was removed at designated time points and loaded onto a Zensor electrode for electrochemical testing. Square-wave voltammetric scans were performed at potentials ranging from −0.4 to −0.1 V at an amplitude voltage of 0.050 V and a frequency of 15 Hz. Scans were performed for each sample three times with three replicates for each tested condition. The data was analyzed using OriginPro 9.1 (OriginLab Corporation). Baselines were created for each data set using spline interpolation with 8 base points. The resulting baseline-subtracted data set was used to determine the max currents observed from pyocyanin production.
Liquid cultures of P. aeruginosa were grown in either M63 minimal media or TSB to observe the effect of amino acid addition on the bacteria's production of pyocyanin using the methods described in Example 2. 10 μL of stock PA14 culture was loaded into 10 mL liquid cultures each containing one of six different amino acids (final concentration of 4 million cells per mL). […] Electrochemical scans were taken roughly every two hours over the course of a 24-hour period.
Tyrosine and valine were prepared at concentrations ranging from those quantified in typical cystic fibrosis infection levels (tyrosine: 0.2 mM, valine: 1.1 mM) to an 80-fold increase, which reached the solubility limit of the amino acids in TSB. The initial concentration of P. aeruginosa loaded in each sample was kept constant at roughly 4 million cells per mL and electrochemical scans were taken every two hours over the course of ten hours. FIGS. 11 A and B show scans taken after eight hours of growth in addition to a control with no amino acid additives. Again, consistent among all scans was the observance of a pyocyanin peak around −0.25 V vs. a Ag/AgCl reference. […] It is possible that valine has an inhibitory effect on pyocyanin production at such high concentrations. While such inhibition has been observed for other molecules (D. J. Musk, D. A. Banko and P. J. Hergenrother, Chem. Biol., 2005, 12, 789-796), P. aeruginosa has not been previously studied at valine concentrations that are over 100 times greater than what is typically found in a pseudomonal infection.
The next set of tests studied how varying the initial P. aeruginosa cell concentration would affect the production of pyocyanin in the presence of amino acids. TSB media was used as the growth media to which tyrosine and valine were added. Tyrosine (16 mM) and valine (17.6 mM) concentrations were held constant while varying amounts of P. aeruginosa were added into the samples (4, 20, 40, 400 million cells per mL). […]

P. aeruginosa cultures = settings: cited from earlier work

| SMILES | time to appearance of a pyocyanin signal [1] | effect on biofilm formation (P. aeruginosa cultures) | effect on pyocyanin production ([1]; 4 million cells per mL) | effect of varying amino acid concentration on amounts of pyocyanin produced after the critical time point ([1]; TSB, 4 million cells per mL) | effect of varying amino acid concentration on time needed for cells to up-regulate pyocyanin production ([1]; TSB, 4 million cells per mL) | rate of pyocyanin production, 16 mM tyrosine compared with 17.6 mM valine ([1]; TSB, 4 million cells per mL) | up-regulatory effect on pyocyanin production compared with the other amino acids tested [1] | further results |
| --- | --- | --- | --- | --- | --- | --- | --- | --- |
| N[C@@H](Cc1c[nH]cn1)C(=O)O [histidine] | significantly less time | up-regulate biofilm formation |  |  |  |  |  |  |
| O=C(O)[C@@H]1CCCN1 [proline] |  | up-regulate biofilm formation |  |  |  |  |  |  |
| CC(C)[C@H](N)C(=O)O [valine] |  | up-regulate biofilm formation | up-regulatory effect | significant effect | minimal effect | nearly identical | largest up-regulatory effect of the six amino acids tested | pyocyanin production when concentration raised to 88 mM ([1]; TSB, 88 mM versus 17.6 mM valine): decreased; amino acid concentration giving the largest pyocyanin concentration ([1]; TSB, 4 million cells per mL, eight hours of growth): 17.6 mM |
| N=C(N)NCCC[C@H](N)C(=O)O [arginine] |  | up-regulate biofilm formation |  |  |  |  |  |  |
| CC(C)C[C@H](N)C(=O)O [leucine] |  | up-regulate biofilm formation |  |  |  |  |  |  |
| N[C@@H](Cc1ccc(O)cc1)C(=O)O [tyrosine] | significantly less time | up-regulate biofilm formation | up-regulatory effect | significant effect | minimal effect | nearly identical | greatest up-regulatory effect in both media | time of statistically significant increase in current output ([1]; TSB, 16 mM tyrosine, 400 million cells per mL, FIG. 14 A): between four and six hours; time of statistically significant increase in current output ([1]; TSB, 4 million cells per mL, FIG. 12 A): between six and eight hours; pyocyanin produced, 16 mM tyrosine versus 17.6 mM valine ([1]; TSB, initial cell concentrations above 4 million cells per mL): more pyocyanin than 17.6 mM valine; up-regulatory effect on pyocyanin production compared with the other amino acids tested ([1]; listed as Tyrosine): largest up-regulatory effect of the six amino acids tested |
